Assay [1] concerns the target T1, mPGES-1 (Homo sapiens (Human), UniProt O14684). Kind of assay: mPGES-1 enzyme assay (HTRF detection of PGE2). It is filed as biochemical. Background: TR-FRET usually uses a lanthanide donor and a delayed reading to cut background.
In assay [2] the target is T1, mPGES-1. Briefly: A549 cell-based assay (PGE2 formation, IL-1β stimulated, 50% human serum). The conditions noted are these: A549 cells. In short, it runs like this: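 Human A549 cells (7000 cells/well) in F-12 medium with 50% human serum, with IL-1β stimulation. IC50 from 6-8 point titrations.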
Setting [3] is: recombinant human mPGES-1 microsomes, PGH2 2 μM, read-out: mPGES-1 inhibitory effect in the enzyme assay, IC50.
[4] abbreviates: IL-1β 5 ng/ml, read-out: mPGES-1 inhibitory effect in the cell assay, IC50.

T1 sequence (O14684 whole entry): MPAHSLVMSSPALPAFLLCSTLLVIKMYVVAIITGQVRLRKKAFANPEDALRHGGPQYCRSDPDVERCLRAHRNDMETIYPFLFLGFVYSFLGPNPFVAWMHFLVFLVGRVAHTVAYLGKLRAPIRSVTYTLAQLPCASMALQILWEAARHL

For orientation: IC50 means the midpoint of a concentration-inhibition curve. As for `Cc1cc(Cl)cnc1NC(=O)c1cc2nc(Nc3c(Cl)ccc(CNC(=O)C(C)(C)C)c3Cl)n(C)c2cc1OCC(F)F` [Example 63], the half-inhibitory concentration (IC50) at mPGES-1 [1] (setting [3]) was determined as 3 nM; on mPGES-1 [2] (setting [4]), 1 nM.

As for `Cn1c(Nc2c(Cl)ccc(CNC(=O)C(C)(C)C)c2Cl)nc2cc(C(=O)NCC(F)(F)F)c(F)cc21` [Example 21], the half-inhibitory concentration (IC50) on mPGES-1 [1] (setting [3]) came out at 3 nM; on mPGES-1 [2] (setting [4]), 36 nM.

Turning to `CC(NC(=O)c1cc2nc(Nc3c(Cl)ccc(CNC(=O)C(C)(C)C)c3Cl)n(C)c2cc1OCC(F)F)C(F)(F)F` (centres unmarked) [Example 39], the concentration for half-maximal inhibition (IC50) on mPGES-1 [1] (setting [3]) was 4 nM; at mPGES-1 [2] (setting [4]), less than 1 nM.

In the case of `Cn1c(Nc2c(Cl)ccc(CNC(=O)C(C)(C)C)c2Cl)nc2cc(C(=O)Nc3cc(F)cc(Cl)c3)c(F)cc21` [Example 23], the half-maximal inhibitory concentration (IC50) on mPGES-1 [1] (setting [3]) is 1 nM; on mPGES-1 [2] (setting [4]), less than 1 nM.

For `Cn1c(Nc2c(Cl)ccc(CNC(=O)C(C)(C)C)c2Cl)nc2cc(C(=O)NC3CC4CCC3C4)c(OCC(F)F)cc21` (centres unmarked) [Example 55], the IC50 at mPGES-1 [1] (setting [3]) is 4 nM; at mPGES-1 [2] (setting [4]) it was less than 1 nM.

For `Cn1c(Nc2c(Cl)ccc(CNC(=O)C(C)(C)C)c2Cl)nc2cc(C(=O)NC3CCC(F)(F)CC3)c(OCC(F)F)cc21` [Example 64], the IC50 on mPGES-1 [1] (setting [3]) was 2 nM; on mPGES-1 [2] (setting [4]) it was less than 1 nM.

In the case of `Cn1c(Nc2c(Cl)ccc(CNC(=O)C(C)(C)C)c2Cl)nc2cc(C(=O)NCCC(F)(F)F)c(OCC(F)F)cc21` [Example 48], the IC50 on mPGES-1 [1] (setting [3]) came out at 3 nM; on mPGES-1 [2] (setting [4]) it was 1 nM.

With `Cn1c(Nc2c(Cl)ccc(CNC(=O)C(C)(C)C)c2F)nc2cc(C(=O)NCC(F)(F)F)c(OCC(F)F)cc21` [Example 77], the half-inhibitory concentration (IC50) on mPGES-1 [1] (setting [3]) came to 2 nM; on mPGES-1 [2] (setting [4]) it was 12 nM.

With `Cn1c(Nc2c(Cl)ccc(CNC(=O)C(C)(C)C)c2Cl)nc2cc(C(=O)Nc3ccc(Br)cc3)c(OCC(F)F)cc21` [drawing 44], the IC50 on mPGES-1 [1] (Table C comparison of selected benzimidazoles, read-out: Enzym IC50) is 2 nM; at mPGES-1 [2] (Table C comparison of selected benzimidazoles, read-out: Cell IC50), less than 1 nM.

In the case of `COCC1(CNC(=O)c2cc3nc(Nc4c(Cl)ccc(CNC(=O)C(C)(C)C)c4Cl)n(C)c3cc2OCC(F)F)CCCC1` [Example 49], the results for the IC50 on mPGES-1 [1] (setting [3]) and on mPGES-1 [2] (setting [4]) were 4 nM and 1 nM, respectively.

As for `Cn1c(Nc2c(F)ccc(CNC(=O)C(C)(C)C)c2F)nc2cc(C(=O)Nc3ccc(F)c(Cl)c3)c(OCC(F)F)cc21` [Example 26], the values for the IC50 on mPGES-1 [1] (setting [3]) and on mPGES-1 [2] (setting [4]) were 2 nM and 11 nM, respectively.

With `Cn1c(Nc2c(Cl)ccc(CNC(=O)C(C)(C)C)c2Cl)nc2cc(C(=O)NC[C@@H]3CCCO3)c(OCC(F)F)cc21` [Example 37], the IC50 on mPGES-1 [1] (setting [3]) was 5 nM; at mPGES-1 [2] (setting [4]), 9 nM.

On to `Cn1c(Nc2c(Cl)ccc(CNC(=O)C(C)(C)C)c2Cl)nc2cc(C(=O)Nc3ccc(C(F)(F)F)nc3)c(OCC(F)F)cc21` [Example 47], for which the IC50 is 3 nM on mPGES-1 [1] (setting [3]) and less than 1 nM at mPGES-1 [2] (setting [4]).

`Cn1c(Nc2c(Cl)ccc(CNC(=O)C(C)(C)C)c2Cl)nc2cc(C(=O)Nc3ccc(F)c(Cl)c3)c(OC3CCOC3)cc21` (centres unmarked) [Example 179]: the IC50 at mPGES-1 [1] (setting [3]) is 1 nM; at mPGES-1 [2] (setting [4]) it was less than 1 nM.

In the case of `Cn1c(Nc2c(F)ccc(CNC(=O)C(C)(C)C)c2F)nc2cc(C(=O)N[C@H]3CC[C@H](C(F)(F)F)CC3)c(OCC(F)F)cc21` [Example 25], the values for the 50% inhibitory concentration (IC50) on mPGES-1 [1] (setting [3]) and at mPGES-1 [2] (setting [4]) were 2 nM and 9 nM, respectively.

In the case of `Cn1c(Nc2c(Cl)ccc(CNC(=O)C(C)(C)C)c2Cl)nc2cc(C(=O)NCC(F)(F)F)c(OCC(F)F)cc21` [Example 58], the values for the IC50 at mPGES-1 [1] (setting [3]) and on mPGES-1 [2] (setting [4]) were 3 nM and 2 nM, respectively.

The record behind these values is patent US8759537B2, “3H-imidazo [4, 5-C] pyridine-6-carboxamides as anti-inflammatory agents” (Boehringer Ingelheim International GmbH, priority 2010, dated 2014).
